US9084765B2, “Use of amisulpride as an anti-emetic” (Acacia Pharma Limited, priority 2010, dated 2015)
Entries after “also recorded” stand apart in the source; their conditions may differ.

Assays:
[1] = test system: ferrets challenged with apomorphine; test: Apomorphine-induced emesis in ferrets; format: in vivo, ferret; conditions: 2 hour observation
Procedure: (§1) Amisulpride, white powder, was dissolved in dimethylsulfoxide and then diluted in physiological saline. For vehicle control, physiological saline was used for s,c, administration (apomorphine experiments) and 8.3% DMSO in physiological saline was used for i.v. administration (morphine, cisplatin). Apomorphine hydrochloride hemihydrates, white powder, was dissolved in physiological saline. The method used to test antiemetic activity preclinically follows that described by Gardner et al. (Brit. J. Pharmacol., 116: 3158-3163, 1995) and uses ferrets. Sixty minutes before administration of the test substance, ferrets are placed in individual stainless steel cages (40×50×34 cm) with a grid floor. Then, the animals are challenged with apomorphine (0.25 mg/kg s.c.), morphine (0.4 mg/kg i.p.) or cisplatin (10 mg/kg i.p.) and immediately observed over at least a 2-hour period. Parameters recorded include: number of ferrets showing retches and vomits; latency to first retching; latency to first vomiting; number of retches; vomiting (number of vomits); number of emesis periods and mean duration of emesis periods. Retching is defined as a rhythmic respiratory movement against a closed glottis, while vomiting is defined as a forced expulsion of upper gastrointestinal contents. […]

[2] = test system: ferrets challenged with morphine; test: Morphine-induced emesis in ferrets; format: in vivo, ferret
Procedure: as §1, with “Morphine hydrochloride,” for “Apomorphine hydrochloride hemihydrates,”

[3] = test system: ferrets challenged with cisplatin; test: Cisplatin-induced emesis in ferrets; format: in vivo, ferret
Procedure: Amisulpride, white powder, was dissolved in dimethylsulfoxide and then diluted in physiological saline. For vehicle control, physiological saline was used for s,c, administration (apomorphine experiments) and 8.3% DMSO in physiological saline was used for i.v. administration (morphine, cisplatin). […] Cisplatinum II diamine dichloride, yellow powder, was dispersed in 0.2% hydroxymethylcellulose in physiological saline. The method used to test antiemetic activity preclinically follows that described by Gardner et al. (Brit. J. Pharmacol., 116: 3158-3163, 1995) and uses ferrets. Sixty minutes before administration of the test substance, ferrets are placed in individual stainless steel cages (40×50×34 cm) with a grid floor. Then, the animals are challenged with apomorphine (0.25 mg/kg s.c.), morphine (0.4 mg/kg i.p.) or cisplatin (10 mg/kg i.p.) and immediately observed over at least a 2-hour period. Parameters recorded include: number of ferrets showing retches and vomits; latency to first retching; latency to first vomiting; number of retches; vomiting (number of vomits); number of emesis periods and mean duration of emesis periods. Retching is defined as a rhythmic respiratory movement against a closed glottis, while vomiting is defined as a forced expulsion of upper gastrointestinal contents. […]

[4] = reported in the UKPAR (Special Warnings and Precautions for Use); cited from earlier work
[5] = test system: apomorphine-induced vomiting in the dog; conditions: reported in U.S. Pat. No. 4,294,828; cited from earlier work

Q: Which “effect on apomorphine emesis” value ([1]; amisulpride 10 μg/kg s.c.) does the source give for `CCN1CCCC1CNC(=O)c1cc(S(=O)(=O)CC)c(N)cc1OC` (centres unmarked) [Amisulpride] here?
A: totally inhibited

Q: What about the “effect on apomorphine emesis” value ([1]; amisulpride 100 μg/kg s.c.) of the same molecule?
A: totally inhibited

Q: And the incidence of vomits ([2]; amisulpride 3 mg/kg i.v. before morphine 0.4 mg/kg i.p.)?
A: abolished

Q: And the “effect on emetic effects induced by morphine” value ([2]; i.v. 5 minutes before morphine, 2 hour observation, versus vehicle control)?
A: reduces the emetic effects induced by morphine, in dose-dependent manner

Q: And the “efficacy compared with droperidol” value ([3]; amisulpride 0.6 mg/kg (one animal excluded) and 2 mg/kg versus droperidol 3 mg/kg given 5 minutes before cisplatin)?
A: better than droperidol at 3 mg/kg; also recorded: more effective than droperidol at 3 mg/kg

Q: What about the “effect on emetic effects of cisplatin” value ([3]; i.v. before cisplatin, 72 hour period, versus vehicle control) of the same molecule?
A: reduces the emetic effects of cisplatin, in dose-dependent manner

Q: What about the “prolongation of the QT interval” value [4] of the same molecule?
A: induces a dose dependent prolongation of the QT interval

Q: What about the apomorphine-induced vomiting [5] of the same molecule?
A: inhibit apomorphine-induced vomiting in the dog
